Source: paper PMC6934184, “Selective DNA-PKcs inhibition extends the therapeutic index of localized radiotherapy and chemotherapy” (The Journal of Clinical Investigation, 2019)

Molecular target: T1, TXK (Homo sapiens, UniProt P42681)
T1 construct: purchased Thermo Fisher Scientific (Life Technologies) SelectScreen
Assay: SelectScreen Z'LYTE
Type: biochemical
Method in brief: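 SelectScreen broad panel; activity (Z'LYTE, Adapta) plus binding formats. ATP: Km app for CSF1R Z'LYTE; 10 for CAMK1 Adapta. Readout = % per kinase.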

T1 sequence (P42681 whole entry): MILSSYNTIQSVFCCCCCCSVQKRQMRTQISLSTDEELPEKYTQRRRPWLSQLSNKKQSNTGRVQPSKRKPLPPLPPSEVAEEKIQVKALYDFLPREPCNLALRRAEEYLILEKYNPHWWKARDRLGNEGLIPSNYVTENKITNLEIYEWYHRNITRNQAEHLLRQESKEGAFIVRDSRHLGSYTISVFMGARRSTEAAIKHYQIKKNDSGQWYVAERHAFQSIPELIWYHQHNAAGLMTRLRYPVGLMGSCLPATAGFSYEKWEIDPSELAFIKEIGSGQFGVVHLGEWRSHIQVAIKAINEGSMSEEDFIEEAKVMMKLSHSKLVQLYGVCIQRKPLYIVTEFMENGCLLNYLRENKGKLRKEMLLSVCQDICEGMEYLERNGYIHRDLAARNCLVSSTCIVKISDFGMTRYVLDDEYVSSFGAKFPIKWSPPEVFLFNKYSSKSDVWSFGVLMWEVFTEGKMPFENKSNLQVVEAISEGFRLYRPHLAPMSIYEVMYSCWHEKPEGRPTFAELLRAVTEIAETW

## CN(C(=O)CN1CCOCC1)c1ccc2sc3c(-c4cccc5c(=O)cc(N6CC7CCC(C6)O7)oc45)cccc3c2c1 [NU5455]
  inhibition at 1 µM: -2.9%
